From patent publication US20090305955A1, “Cyclopeptide with Anti-Cancer Activity Derived from Collagen Type IV” (priority 2006, published 2009)
Where a SMILES comes first, the peptide text is derived from it.

Legend:
Assay type in all cases: cell-based, human
[1] = system: MMP-14; experiment: Western blot of proMMP-14 / MMP-14, UACC-903 cells; settings: 20 μM
Description: FIG. 12: Effect of YSNSG (SEQ ID NO: 3) cyclopeptide on expression and activation of MMP-14. Expression of proMMP-14 (white bar) and MMP-14 (black bar) was studied by Western Blot (A) in a medium conditioned by UACC-903 cells in the absence of peptide (control), on cells treated with the linear heptapeptide CNYYSNS (SEQ ID NO: 5) (20 μm) or treated with the cyclopeptide YSNSG (SEQ ID NO: 3) at a concentration of 20 μM (cyclopeptide YSNSG (SEQ ID NO: 3)). The conditioned medium was recovered and analyzed as described in the methods. Quantification was carried out using Bio 1D software. (B);
The samples underwent 10% polyacrylamide gel electrophoresis in the presence of 0.1% SDS then were transferred onto Immobilon-P membranes (Millipore, St Quentin en Yvelines, France). The membranes were saturated with 5% freeze dried skimmed milk, Tween 20 0.1% in a 50 mM Tris-HCl, 150 mM NaCl buffer, pH 7.5 (TBS) for 2 hours at ambient temperature. The membranes were then incubated overnight at 4° C. with anti-MMP-14, anti-PAI-1 and anti-u-PAR antibodies then incubated for one hour at ambient temperature with a secondary antibody (anti-IgG) conjugated with peroxidase. The immune complexes were visualized with an ECL chemoluminescence detection kit.

[2] = system: TIMP-1; experiment: Reverse zymography of TIMP secretion, UACC-903 cells; settings: conditioned culture medium
Description: (§1) FIG. 13: Effect of YSNSG (SEQ ID NO: 3) cyclopeptide on secretion of TIMP. The secretion of 3 tissue inhibitors of metalloproteinases (TIMP) was analyzed by reverse zymography (A) in a medium conditioned by control UACC-903 cells in the absence of peptide (negative control, white bar), on cells treated with the linear heptapeptide CNYYSNS (SEQ ID NO: 5) (20 μM) (positive control, black bar) or treated with cyclopeptide YSNSG (SEQ ID NO: 3) at a concentration from 5 μM to 20 μM (grey bars). The conditioned medium was recovered and analyzed as described in the methods.
(§2) The expression of MMP-2 and MMP-9 in a conditioned medium of UACC-903 cells, treated or not treated with synthetic peptides, was analyzed by zymography in the presence of gelatine as described above (Pasco et al, 2000(a)). The secretion of TIMP-2 was analyzed in a conditioned medium of UACC-903 cells by reverse zymography in the presence of gelatine, as described above (Pascal et al, 2000(a)).

[3] = system: TIMP-3; experiment: as above; settings: conditioned culture medium
Description: as §1, §2

[4] = system: TIMP-2; experiment: as above; settings: cyclopeptide 5 to 20 μM, linear heptapeptide 20 μM
Description: as §1, §2

[5] = system: UACC-903 melanoma cells; experiment: In vitro invasion/migration test (modified Boyden chambers, Matrigel); settings: 20 μM; 48 hours; Matrigel membranes, 10% FCS chemoattractive agent
Description: FIG. 10: In vitro migration test for UACC-903 human melanoma cells in the presence of the cyclopeptide YSNSG (SEQ ID NO: 3). The UACC-903 cells were incubated with a control medium (control, negative, white bar), a linear heptapeptide CNYYSNS (SEQ ID NO: 5) (positive control, black bar) or with the cyclopeptide YSNSG (SEQ ID NO: 3) at 20 μM (grey bar). After an incubation period of 48 hours, the migrated cells were stained with crystal violet and counted under reverse microscopy.
Cell invasion was tested in modified Boyden chambers (ThinCert®, a cell culture insert for 24-well plates, internal diameter 8.36 mm, 8 μm pore, Greiner Bio-one, Courtaboeuf, France). Briefly, 5×10^4 cells were suspended in DMEM medium without FCS and containing 0.2% BSA and seeded onto membranes spread with Matrigel (30 μg/cm^2). DMEM medium supplemented with 10% FCS and 2% BSA were used as the chemo-attracting agent. […] The cells remaining on the upper surface of the membranes were eliminated by scraping and those on the lower surface were counted using a reverse microscope (Pasco et al, 2000(a)). The counted cells corresponded to the cells which had crossed the Matrigel mat then the porous membrane of the Boyden chamber; they thus reflected the migration and invasion capacities of the tumour cells through an extracellular matrix or a basal membrane, reproduced in this case by the Matrigel.

[6] = system: t-PA; experiment: Zymography in the presence of gelatine and plasminogen, UACC-903 cells; settings: cyclopeptide 5 to 20 μM, linear heptapeptide 20 μM
Description: (§3) FIG. 14: Effect of YSNSG (SEQ ID NO: 3) cyclopeptide on the secretion of plasminogen activators. The secretion of u-PA (urokinase type plasminogen activator) and t-PA (tissue plasminogen activator) was analyzed by zymography in the presence of gelatine and plasminogen (A) in a medium conditioned by control UACC-903 cells in the absence of peptide (negative control, white bar), on cells treated with linear heptapeptide CNYYSNS (SEQ ID NO: 5) (20 μM) (positive control, black bar) or treated with the cyclopeptide YSNSG (SEQ ID NO: 3) at a concentration varying from 5 μM to 20 μM (grey bars). The conditioned medium was recovered and analyzed as described in the methods.
(§4) To determine the plasminogen activities, conditioned media of UACC-903 cells were analyzed by polyacrylamide gel electrophoresis in the presence of SDS and containing 1 mg/ml of gelatine and 10 μg/ml of plasminogen. After electrophoresis, the gels were incubated overnight at ambient temperature in a 100 mM glycine, 5 mM EDTA, pH 8.0 buffer.

[7] = system: u-PA; experiment: as above; settings: cyclopeptide 5 to 20 μM, linear heptapeptide 20 μM
Description: as §3, §4

Compound | activation of proMMP-14 [1] | expression of proMMP-14 [1] | Secretion of TIMP-1 [2] | Secretion of TIMP-3 [3] | secretion of TIMP-2 [4] | reduction in the migration of UACC-903 cells [5] | secretion of t-PA [6] | secretion of u-PA [7]
CNYYSNS (Synthetic linear heptapeptide) [linear peptide NC1 [α3(IV) 185-191], the 7 N-terminal amino acids of the 185-203 domain; positive control, reference compound] | same intensity | same intensity | not modified | not modified | dose-dependent increase | similar | reduction observed | reduction observed
NC(=O)CC1NC(=O)C(CO)NC(=O)C(Cc2ccc(O)cc2)NC(=O)CNC(=O)C(CO)NC1=O (stereo not shown) [cyclopeptide YSNSG, cyclopeptide YSNSG (SEQ ID NO: 3)] (cyclo(GYSNS); configuration not given here) | completely abolished | strongly inhibited | not modified | not modified | dose-dependent increase | −47% | dose-dependent reduction | dose-dependent reduction
